# Data reported in US6916797B2, “α-arylethylpiperazine derivatives as neurokinin antagonists” (UCB, S.A., priority 2000, dated 2005).
# Assays:
# [1] = system: verapamil binding site of the L-type calcium channel; assay: Inhibition of [3H]D888 binding to the verapamil binding site of the L-type calcium channel (rat cerebral cortex membranes); settings: 10 μmol/l of test substance
# Procedure: 200-250 g male Sprague-Dawley rats are sacrificed by decapitation. Cerebral cortices are quickly dissected on ice and homogenized in a 20 mmol/l Tris-HCl (pH 7.4) buffer containing 250 mmol/l sucrose (buffer A). The homogenate is centrifuged at 30,000 g for 15 min at 4° C. The resulting crude membrane pellet is resuspended in a 50 mmol/l Tris-HCl (pH 7.4) buffer and incubated 15 min at 37° C. before being centrifuged at 30,000×g for 15 min at 4° C. After two more washes under the same conditions, the final pellet is resuspended in buffer A at a protein concentration ranging from 15 to 25 mg/ml and stored in liquid nitrogen.
# Binding experiments are essentially performed according to Reynolds J. et al., J. Pharmacol. Exp. Ther. (1986), 237, 731-738. (1986) with slight modifications.
# Membranes (120-175 μg/assay) are incubated at 25° C. for 60 min in 0.5 ml of a 50 mmol/l Tris-HCl buffer (pH 7.4) containing 2 mmol/l MgCl2, 0.2 to 0.4×10-9 mol/l of [^3H]D888 (85 Ci/mmol; Amersham, Belgium) and 10 μmol/l of the test substance. The non specific binding (NSB) is defined as the residual binding observed in the presence 10 μM verapamil. Membrane-bound and -free radioligands are separated by rapid filtration through glass fiber filters (equivalent to Whatman GF/C or GF/B; VEL, Belgium) presoaked in 0.1% polyethyleneimine to reduce non specific binding. Samples and filters are rinsed by at least 6 ml of 50 mmol/l Tris-HCl (pH 7.4) buffer. […] The radioactivity trapped onto the filters is counted by liquid scintillation in a β-counter.
# The inhibition of the radioligand specific binding is calculated as follows: [formula] • where BI and Bo represent the binding observed in the presence and absence of the test substance respectively; and • BNS is the non specific binding.
# Data analysis is performed by a computerized non linear curve fitting method using a set of equations describing several binding models assuming competitive interactions between ligands (Weiland G. A. and P. B. Molinoff Life Science (1981), 29, 313-330; Molinoff P. et al. (1981) Life Sci., 29, 427-443).
# NK1 receptors = NK1 receptors (Homo sapiens, UniProt P25103); assay: Binding of [4,5-3H-Leu10] substance P to human recombinant NK1 receptors expressed in CHO cell membranes; design: host or cells: CHO cells; settings: pIC50 = -log IC50, concentration inhibiting by 50% the specific binding of [4,5-3H] substance P; tested as the free base/salt given in c1
# Procedure: The following test was designed to assess the affinity of test substances for human recombinant NK1 receptors expressed in Chinese Hamster Ovarian (CHO) cells.
# CHO cells expressing the human recombinant NK1 receptor are used. The cells were obtained from Euroscreen (Brussels, Belgium).
# Cells expressing the human NK1 receptor are routinely cultured in 175 cm2 flasks containing 75 ml of medium F12 (Ham) enriched with 2 mmol/l L-glutamine, 100 IU/ml penicilline, 100 μg/ml streptomycine, 1% sodium pyruvate, 2.5 μg/ml fungizone amphotericin B, 400 μg/ml geneticin and supplemented with 10% foetal calf serum. […] When subcultured, the cells are seeded at a concentration of 50,000 cells/cm2.
# Confluent cells are gently scraped and resuspended in 25 ml of phosphate buffered saline without calcium and magnesium. The cellular suspension is centrifuged at 1500×g for 3 min (4° C.). The cell pellet is homogenized in a 15 mmol/l Tris-HCl (pH 7.5) buffer, 2 mmol/l MgCl2, 0.3 mmol/l EDTA, 1 mmol/l EGTA. The crude membrane fraction is collected by two consecutive centrifugation steps at 40,000×g for 25 min (4° C.). The final pellet is resuspended in 20 mmol/l Tris-HCl (pH 7.4), 250 mmol/l sucrose buffer at a protein concentration ranging from 2 to 6 mg/ml and stored in liquid nitrogen. • 1.2.2. Test Design
# The inhibition constant (Ki) is determined using increasing concentrations of the test substance. The concentration range usually encompasses 6 log units with variable steps (0.3 to 1 log). Assays are performed in mono- or duplicate.
# Membranes are incubated at 25° C. for 60 min in 0.5 ml of a 50 mmol/l Tris-HCl buffer (pH 7.4) containing 2 mmol/l MgCl2, 100 μg/ml bacitracine, 0.1 to 0.4×10^−9 mol/l of [4,5^3H-Leu^10] substance P (specific activity>100 Ci/mmol) and increasing concentrations of the test substance. […] Membrane-bound and free radioligands are separated by rapid filtration through glass fiber filters (equivalent to Whatman GF/C or GF/B; VEL, Belgium) presoaked in 0.1% polyethyleneimine to reduce non specific binding. Samples and filters are rinsed by at least 6 ml of 50 mmol/l Tris-HCl (pH 7.4) buffer.
# Initial values for the different variables may be provided by the experimenter.
# [2] = system: isolated rat aorta contracted by 100 mM KCl; assay: Effect of compound on isolated rat aorta contracted by 100 mM KCl; settings: 10^−5 M; contraction by 100 mM KCl
# Procedure: Rat thoracic aorta depolarized by 100 mM KCl develops a contraction induced by an influx of Ca^2+ into the smooth muscle cell. An inhibition of this contraction could predict a Ca^2+ antagonist activity.
# The method was adapted from Polster P. et al., J. Pharmacol. Exp. Ther. (1990), 255, 593: rings of thoracic aorta were prepared from male Wistar rats (250-400 g) and mounted under an optimal resting tension of 2 g in 10 ml organ baths containing modified Krebs' solution (NaCl 112 mM, NaHCO3 25 mM, KCl 5 mM, MgSO4 1.2 mM, CaCl2 2.5 mM, KH2PO4 1 mM and glucose 11.5 mM, pH 7.4). The bathing solution was maintained at a temperature of 37° C. and gassed with 95% O2 and 5% CO2. Isometric contractions were measured with a force transducer connected to an amplifier. A computer system was used to control data acquisition and fluid circulation through electrovalves. Drugs were manually injected into the bath.
# Each ring was allowed to equilibrate for 60 min in the modified Krebs' solution. […] After obtaining two reproducible control contractions, a 3rd contraction was induced and the test compound was added to the bathing medium for 2 hours. Only preparation in which the contractions were matched were used. Each tissue received only one concentration of the test compound. Appropriate control experiments were conducted in order to test the effect of the solvant.
# To normalize data, the change in tension due to the drug was compared to the change of tension due to the solvant and expressed as percentage of the induced relaxation of the initial contraction. Raw data were processed by a computer system and the pD′2 value was calculated following the method of Van Rossum J. M. et al., Arch. Int. Pharmacodyn. Ther. (1963), 143, 299.
# NK1 receptors, sequence (P25103 whole entry): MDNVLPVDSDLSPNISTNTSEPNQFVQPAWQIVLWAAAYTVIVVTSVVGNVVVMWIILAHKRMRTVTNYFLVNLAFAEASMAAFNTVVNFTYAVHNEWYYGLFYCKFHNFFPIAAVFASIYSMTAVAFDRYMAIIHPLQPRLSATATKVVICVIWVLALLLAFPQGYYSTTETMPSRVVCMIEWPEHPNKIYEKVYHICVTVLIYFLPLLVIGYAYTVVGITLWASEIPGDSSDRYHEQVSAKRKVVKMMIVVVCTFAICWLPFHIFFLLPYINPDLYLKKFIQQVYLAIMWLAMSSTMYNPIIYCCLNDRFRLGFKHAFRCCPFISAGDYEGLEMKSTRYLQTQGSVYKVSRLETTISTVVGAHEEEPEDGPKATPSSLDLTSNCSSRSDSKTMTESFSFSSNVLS
Structure (SMILES),% inhibition of [3H]D888 binding to the verapamil binding site of the L-type calcium channel [1],IC50 (NK1 receptors) [nM],Result: effect of compound on isolated rat aorta contracted by 100 mM KCl [2]
"Cc1ccc(S(=O)(=O)NC(=O)OCCN2CCN(C(COCc3cc(C(F)(F)F)cc(C(F)(F)F)c3)c3ccccc3)CC2)cc1 (centres unmarked) [Compound 307, N-p-toluenesulfonic-carbamic acid 2-{4-[2-(3,5-bis-trifluoromethyl-benzyloxy)-1-phenyl-ethyl]-piperazin-1-yl}-ethyl ester]",+ (+: inhibition comprised between 20 and 50%),15.8,–
CC(OCC(c1ccccc1)N1CCN(CCCCc2nnn[nH]2)CC1)c1cc(C(F)(F)F)cc(C(F)(F)F)c1 (centres unmarked) [Compound 303],+ (+: inhibition comprised between 20 and 50%),5.01,inactive à 10^−5 M
"CC(OCC(c1ccccc1)N1CCN(CC(=O)O)CC1)c1cc(C(F)(F)F)cc(C(F)(F)F)c1 (single isomer, unassigned) [Compound 274]",0 (0: inhibition < 20%),12.6,–
CC(OCC(c1ccccc1)N1CCN(CCCCc2nnn[nH]2)CC1)c1cc(C(F)(F)F)cc(C(F)(F)F)c1 (centres unmarked) [Compound 302],+ (+: inhibition comprised between 20 and 50%),3.98,–
O=C(O)COCCN1CCN([C@@H](COCc2cc(C(F)(F)F)cc(C(F)(F)F)c2)c2ccccc2)CC1 [Compound 237],0 (0: inhibition < 20%),–,inactive à 10^−5 M
"O=C(O)CCCCCN1CCN(C(COCc2cc(C(F)(F)F)cc(C(F)(F)F)c2)c2ccccc2)CC1 (racemic) [Compound 234, 6-{4-[2-(3,5-Bis-trifluoromethyl-benzyloxy)-1-phenyl-ethyl]-piperazin-1-yl}-hexanoic acid]",0 (0: inhibition < 20%),15.8,–
O=C(O)CN1CCN([C@@H](COCc2cc(C(F)(F)F)cc(C(F)(F)F)c2)c2ccccc2)CC1 [Compound 231],0 (0: inhibition < 20%),79.4,–
"O=C(O)C1CCC(N2CCN(C(COCc3cc(C(F)(F)F)cc(C(F)(F)F)c3)c3ccccc3)CC2)CC1 (stereo not drawn) [Compound 313, cis- or trans-4-{4-[2-(3,5-Bis-trifluoromethyl-benzyloxy)-1-phenyl-ethyl]-piperazin-1-yl}-cyclohexanecarboxylic acid]",0 (0: inhibition < 20%),15.8,–
C[C@@H](OC[C@@H](c1ccccc1)N1CCN(CC(=O)O)CC1)c1cc(C(F)(F)F)cc(C(F)(F)F)c1 [Compound 277],0 (0: inhibition < 20%),10,–
"CNC(=O)CN1CCN(C(COCc2cc(C(F)(F)F)cc(C(F)(F)F)c2)c2ccccc2)CC1 (racemic) [Compound 292, 2-{4-[2-(3,5-Bis-trifluoromethyl-benzyloxy)-1-phenyl-ethyl]-piperazin-1-yl}-N-methyl-acetamide]",+ (+: inhibition comprised between 20 and 50%),15.8,–
C[C@@H](OC[C@@H](c1ccccc1)N1CCN(CCOCC(=O)O)CC1)c1cc(C(F)(F)F)cc(C(F)(F)F)c1 [Compound 281],+ (+: inhibition comprised between 20 and 50%),–,inactive à 10^−5 M
"CS(=O)(=O)NC(=O)COCCN1CCN(C(COCc2cc(C(F)(F)F)cc(C(F)(F)F)c2)c2ccccc2)CC1 (centres unmarked) [Compound 305, N-[(2-{4-[2-(3,5-Bis-trifluoromethyl-benzyloxy)-1-phenyl-ethyl]-piperazin-1-yl}-ethoxy)-acetyl]-methanesulfonamide]",0 (0: inhibition < 20%),79.4,–
O=C(O)CN1CCN(C(COCc2cc(C(F)(F)F)cc(C(F)(F)F)c2)c2ccc(Br)cc2)CC1 (racemic) [Compound 250],+ (+: inhibition comprised between 20 and 50%),79.4,–
O=C(O)C(c1ccccc1)N1CCN([C@H](COCc2cc(C(F)(F)F)cc(C(F)(F)F)c2)c2ccccc2)CC1 (mixture of isomers) [Compound 244],−+ (+: inhibition comprised between 20 and 50%),39.8,–
"O=C(COCCN1CCN(C(COCc2cc(C(F)(F)F)cc(C(F)(F)F)c2)c2ccccc2)CC1)NS(=O)(=O)c1ccccc1 (centres unmarked) [Compound 306, N-[(2-{4-[2-(3,5-Bis-trifluoromethyl-benzyloxy)-1-phenyl-ethyl]-piperazin-1-yl}-ethoxy)-acetyl]-benzenesulfonamide]",+ (+: inhibition comprised between 20 and 50%),31.6,–
"CC(OCC(c1ccccc1)N1CCN(CC(=O)O)CC1)c1cc(C(F)(F)F)cc(C(F)(F)F)c1 (single isomer, unassigned) [Compound 273]",0 (0: inhibition < 20%),3.16,–
"N#CCN1CCN([C@H](COCc2cc(C(F)(F)F)cc(C(F)(F)F)c2)c2ccccc2)CC1 [Compound 291, (S)-{4-[2-(3,5-Bis-trifluoromethyl-benzyloxy)-1-phenyl-ethyl]-piperazin-1-yl}-acetonitrile]",0 (0: inhibition < 20%),25.1,–
